Data set [1] addresses T1, L1-mediated cell-cell adhesion in human L1-transfected NIH/3T3 cells (2B2-L1, 2A2-L1) (Homo sapiens, UniProt P32004). In words: Cell aggregation (cell-cell adhesion) assay in ethanol-sensitive, human L1-transfected NIH/3T3 cells. Format: cell-based. The settings on record: for IC50: read-out: IC50 concentration (antagonist, used in FIG. 5A); for effect of increasing concentrations of 1-butanol on the antagonist activity (in words): 2 to […] mM 1-butanol, single antagonist concentration (FIG. 5A, 5B); for agonist or antagonist activity (in words): at the ECEQ and at 10 times the ECEQ; for antagonist effect at higher concentrations (in words): 2 μM to 10 μM; for antagonist activity against ethanol (in words): test concentrations of FIG. 3 / Table 1. On the set-up: antagonist at the aqueous concentration (μM); Antagonist Activity Butanol % ± SEM; 1-alc; effect of increasing concentrations of 1-butanol on the antagonist activity (in words): dose or concentration left out as unconfirmed. On the procedure: (§1) NIH/3T3 cells were cultured at 37° C. in Dulbecco's […] Eagle medium (DMEM) (Invitrogen, Carlsbad, Calif.) supplemented with 10% normal calf serum (Intergen, Purchase, N.Y.) and 400 μg/ml G418 (Life Technologies), in an atmosphere of 90% air and 10% CO2. Three subclones were utilized in these studies: 2B2-L1, 2A2-L1 and Vec-1A5.
Cell adhesion assays were performed in the absence and presence of the compounds, listed below in Table 1. […] The aqueous concentration of each antagonist was calculated to produce membrane concentrations equivalent to 100 mM ethanol. Membrane/buffer partition coefficients (Pm/b) were obtained or calculated from published octanol/water partition coefficients.
(§2) Cells were detached by gentle agitation in calcium-free and magnesium-free PBS supplemented with 0.1 mg/ml. DNase, mechanically dissociated to obtain a single-cell suspension, and diluted to 350,000 cells/ml. One ml of the cell suspension was added per well (4.5 cm^2) to a 12-well plate. Agonists and test antagonists were added simultaneously, plates were sealed with parafilm to prevent evaporation, and the cells were gently shaken for 30 minutes at room temperature or on ice. Cells were viewed at a final magnification of 200× and each well was scored for single and adherent cells in five to six microscopic fields of view. Approximately 100 cells per field of view and 600 cells per well were counted. The percent of adherent cells was calculated for each microscopic field of view and then averaged for each well.
Agonists and antagonists were initially tested at aqueous concentrations that were calculated to produce molar membrane concentrations (˜10 mM) equivalent to those produced by an aqueous concentration of 100 mM ethanol (ECEQ).
L1-mediated cell-cell adhesion was defined as the difference in percent of adherent cells between an L1-transfected cell line (2B2-L1 or 2A2-L1) and a vector-transfected cell line (Vec-1A5).
Agonists include compounds that inhibit L1-mediated cell-cell adhesion.

The conditions of data set [2]: obtained from a published source or calculated from published octanol/water partition coefficients (divided by five); cited from earlier work.
The subject of data set [3] is NIH/3T3 cells transfected with an empty vector (Vec-1A5). Briefly: Aggregation assay on NIH/3T3 cells transfected with an empty vector (non-L1 component of cell adhesion). It counts as cell-based, murine. The settings on record: four independent assays, each compound at the concentration given in the source, control 15±1. On the procedure:
as §1, §2
Each candidate antagonist was tested at a single aqueous concentration that was calculated to produce a molar membrane concentration equivalent to that produced by a buffer solution of 100 mM ethanol (ECEQ).

Data set [4] in a line: Membrane/buffer partition coefficient (Pm/b). The conditions noted are these: from Pm/b of Table 1. It counts as physicochemical. On the procedure:
Cell adhesion assays were performed in the absence and presence of the compounds, listed below in Table 1. […] Membrane/buffer partition coefficients (Pm/b) were obtained or calculated from published octanol/water partition coefficients. The compounds are sorted by decreasing membrane/buffer partition coefficients.
Calculations were based on membrane-buffer partition coefficients (Pm/b), which were obtained from a published source (McCreery and Hunt, 1978) or were derived by dividing the octanol/water partition coefficient by five.

The target of data set [5] is T1, L1-mediated cell-cell adhesion in human L1-transfected NIH/3T3 cells (2B2-L1, 2A2-L1). Set-up: antagonist at the aqueous concentration (μM); Antagonist Activity Butanol % ± SEM; 1-alc. The conditions noted are these: 3-buten-1-ol alone (Wilkemeyer et al., 2000); cited from earlier work.
[6] abbreviates: against 2 mM butanol, linear regression of concentration-response curves (FIG. 4), read-out: aqueous concentration that produced half maximal effect (antagonism).
The mark [7] stands for this setting: EC50 membrane (based on calculated membrane concentrations, expressed relative to 1-pentanol), against 100 mM ethanol, calculated from the Pm/b (FIG. 3).
Where [8] appears, read: approximate EC50 (against 2 mM 1-butanol), antagonist concentration used in FIG. 5B.
[9] abbreviates: against 2 mM butanol, not adjusted for membrane concentration.

Several values for one entry are separate records, joined by “and”; a condition that tells them apart may be missing. Identical values can stand only once. Like-named read-outs stand apart in the source and are kept apart here.

T1 sequence (P32004 whole entry): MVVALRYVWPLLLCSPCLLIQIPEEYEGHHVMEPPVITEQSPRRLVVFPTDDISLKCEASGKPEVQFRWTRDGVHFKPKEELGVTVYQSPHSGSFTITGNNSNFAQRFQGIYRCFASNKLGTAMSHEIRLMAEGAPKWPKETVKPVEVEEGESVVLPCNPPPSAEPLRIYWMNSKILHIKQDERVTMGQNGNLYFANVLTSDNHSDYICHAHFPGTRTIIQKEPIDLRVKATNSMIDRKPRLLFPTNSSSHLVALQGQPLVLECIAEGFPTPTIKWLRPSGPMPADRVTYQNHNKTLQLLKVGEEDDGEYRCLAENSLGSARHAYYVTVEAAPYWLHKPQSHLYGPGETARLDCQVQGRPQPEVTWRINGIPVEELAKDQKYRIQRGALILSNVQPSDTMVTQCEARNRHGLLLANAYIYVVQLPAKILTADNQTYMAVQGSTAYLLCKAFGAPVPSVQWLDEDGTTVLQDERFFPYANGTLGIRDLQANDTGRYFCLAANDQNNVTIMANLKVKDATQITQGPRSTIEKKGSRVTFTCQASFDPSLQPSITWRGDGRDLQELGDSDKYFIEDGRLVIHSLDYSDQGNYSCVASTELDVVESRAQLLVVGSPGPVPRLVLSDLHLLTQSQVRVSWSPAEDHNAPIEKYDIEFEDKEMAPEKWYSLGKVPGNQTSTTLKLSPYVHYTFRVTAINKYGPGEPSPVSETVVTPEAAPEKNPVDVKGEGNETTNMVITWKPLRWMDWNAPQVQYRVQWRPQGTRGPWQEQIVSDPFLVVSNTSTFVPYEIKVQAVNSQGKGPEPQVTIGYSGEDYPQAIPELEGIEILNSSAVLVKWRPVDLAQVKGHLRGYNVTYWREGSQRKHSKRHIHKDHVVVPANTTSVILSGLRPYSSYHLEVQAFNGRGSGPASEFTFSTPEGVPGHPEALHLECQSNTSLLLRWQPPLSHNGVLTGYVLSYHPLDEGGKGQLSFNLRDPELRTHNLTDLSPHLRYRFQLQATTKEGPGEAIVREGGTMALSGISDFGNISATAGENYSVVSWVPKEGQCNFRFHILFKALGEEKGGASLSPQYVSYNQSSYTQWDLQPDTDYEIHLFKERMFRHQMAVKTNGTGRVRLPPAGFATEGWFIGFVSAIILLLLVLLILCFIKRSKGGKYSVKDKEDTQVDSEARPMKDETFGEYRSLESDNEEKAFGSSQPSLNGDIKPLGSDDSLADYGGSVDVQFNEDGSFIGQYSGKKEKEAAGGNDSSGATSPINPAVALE

Regarding `CC=CCO` [2-buten-1-ol], the “percent inhibition of cell adhesion” value in data set [1] (15 mM 2-buten-1-ol alone, n=10) worked out at 34±4%. For the same compound, in data set [1] (15 mM 2-buten-1-ol plus 2 mM 1-butanol, n=11), the “percent inhibition of cell adhesion” value is recorded as 35+6%. Moreover, in data set [1] (15 mM (ECEQ) 2-buten-1-ol), the “antagonism of the actions of 1-butanol and ethanol (in words)” value was “partially antagonized”; the “inhibition of L1-mediated cell-cell adhesion (in words)” value was “partially inhibited”. In addition, in data set [1] (150 mM 2-buten-1-ol), the “antagonism of the actions of 1-butanol or ethanol (in words)” value was “neither antagonized nor augmented” and the “inhibition of L1-mediated cell-cell adhesion (in words)” value was “maximally inhibited”.

For the compound `CCCCCCO` [1-hexanol], the EC50 in data set [1] (setting [6]) was determined as 80 µM.

`CCCCCCCCCCCCCO` [1-tridecanol]: the EC50 in data set [1] is 0.25 µM; in data set [1] (setting [7]) it was 1620 µM. Also, in data set [1] (against 100 mM ethanol (FIG. 3)), the “fold less potent antagonist than C12 (1-dodecanol)” value was “approximately 25 fold”. Further, the “P(m/b) membrane/buffer partition coefficient” value in data set [2] is reported as 36394.

As to `CC(C)c1cccc(C(C)C)c1O` [2,6-di-isopropyl phenol, 2,6-di-isopropylphenol, reference compound], the “P(m/b) membrane/buffer partition coefficient” value in data set [2] was 1233.

`CCCCCCCCO` [1-octanol]: the “mean±S.E.M. percent cell adhesion” value in data set [3] worked out at 12±1%. Moreover, the EC50 is 3 µM in data set [1], 98 µM in data set [1] (setting [7]) and ~5 µM in data set [1] (setting [8]). Besides, in data set [1] (FIG. 3 and Wilkemeyer et al., 2000), the “antagonist potency relative to 1-pentanol” value was “two hundred-fold more potent”. Further, in data set [1], the IC50 turned out to be 5 µM. In data set [2], the “P(m/b) membrane/buffer partition coefficient” value is recorded as 189. Besides, the “lipid solubility relative to 1-pentanol” value in data set [4] is on record as “thirty-seven-fold more lipid soluble”.

As to 1-butanol [reference compound], the “mean±S.E.M. percent cell adhesion” value in data set [3] was 13±2%. Besides, in data set [1] (2 mM 1-butanol (FIG. 5A)), the “percent of the maximal agonist response” value was “approximately 90%”. Besides, the “mean percent inhibition of cell adhesion” value in data set [1] (2 mM 1-butanol alone, n=11) is on record as 60±5%.

With `CCCCCCCCCCCCO` [1-dodecanol], the EC50 in data set [1] (setting [7]) was 140 µM and 28 µM. Moreover, the “P(m/b) membrane/buffer partition coefficient” value in data set [2] is reported as 26979.

As for `CCCC(C)(C)O` [2-methyl-2-pentanol], the “effect of increasing concentrations of 1-butanol on the antagonist activity (in words)” value (“effect of increasing concentrations … (in words)” for short) in data set [1] is listed as “did not eliminate the antagonist activity”. Besides, the “P(m/b) membrane/buffer partition coefficient” value in data set [2] was 5.2.

As for `C[S+](C)[O-]` [dimethyl sulfoxide, reference compound], the “mean±S.E.M. percent cell adhesion” value in data set [3] came to 13±0%. Moreover, the “inhibition of L1-mediated cell adhesion (in words)” value in data set [1] (120 mM (1%) DMSO) is listed as “did not inhibit”. For the same compound, the “agonist or antagonist activity (in words)” value in data set [1] is listed as “neither agonists nor antagonists”. Also, the “P(m/b) membrane/buffer partition coefficient” value in data set [2] was 0.012.

As for `C=CCCO` [3-buten-1-ol], the “mean±S.E.M. percent cell adhesion” value in data set [3] came out at 14±0%. Moreover, the IC50 in data set [1] (antagonism of 1-butanol inhibition of cell-cell adhesion) was found to be 3000 µM. For the same compound, the EC50 in data set [1] (read-out: approximate EC50 (against 2 mM 1-butanol), antagonist concentration used in FIG. 5B) was ~3000 µM. Moreover, the “P(m/b) membrane/buffer partition coefficient” value in data set [2] is listed as 1. The “effect on L1-mediated cell-cell adhesion, compound alone (in words)” value in data set [5] is recorded as “no effect”.

One may read the inhibition as the change of the read-out against control, counted positive when it falls. On to `CCO` [ethanol, reference compound], for which, in data set [1] (NIH3T3, read-out: percent inhibition of L1-mediated cell-cell adhesion), the inhibition at 100000 µM came to 62 ± 7%.

In the case of `CCC(C)O` (stereo not shown) [2-butanol], the “antagonist activity (in words)” value in data set [1] (11 mM (ECEQ) 2-butanol) is reported as “no antagonist activity”. In addition, the “percent inhibition of L1-mediated cell-cell adhesion” value in data set [1] (11 mM (ECEQ) 2-butanol alone, n=6) stood at 63±9%.

In the case of `CCC(O)CC` [3-pentanol], in data set [1], the “effect of increasing concentrations … (in words)” value was “eliminated the antagonist activity”. Besides, in data set [2], the “P(m/b) membrane/buffer partition coefficient” value is on record as 4.69.

`CCCCCCCO` [1-heptanol]: in data set [2], the “P(m/b) membrane/buffer partition coefficient” value was 51.4.

In the case of `CCCC(C)O` (stereo not shown) [2-pentanol], the “effect of increasing concentrations … (in words)” value in data set [1] is “did not eliminate the antagonist activity”. The “P(m/b) membrane/buffer partition coefficient” value in data set [2] is on record as 4.38.

Turning to `CCCCCO` [1-pentanol], the “mean±S.E.M. percent cell adhesion” value in data set [3] is reported as 16±2%. Also, the EC50 in data set [1] was 540 µM; in data set [1] (setting [7]), 540 µM; in data set [1] (setting [6]), 223 µM; in data set [1] (setting [8]), ~700 µM. Moreover, the “effect of increasing concentrations … (in words)” value in data set [1] is “did not eliminate the antagonist activity”. The “P(m/b) membrane/buffer partition coefficient” value in data set [2] is 5.02.

Take `CCCCCCCCCCCCCCCO` [1-pentadecanol]: in data set [1], the “antagonist effect at higher concentrations (in words)” value is “inactive” and the “agonist or antagonist activity (in words)” value is listed as “neither agonists nor antagonists”. For the same compound, the “antagonist activity against ethanol (in words)” value in data set [1] (against 100 mM ethanol) is “completely inactive”. For the same compound, the “antagonist activity against ethanol (in words)” value in data set [1] (against 100 mM ethanol, listed as 1-Pentadecanol) is recorded as “no antagonist activity”. In data set [2], the “P(m/b) membrane/buffer partition coefficient” value was 347560.

With `CCCCCCCCCCCO` [1-undecanol], the EC50 in data set [1] is 0.03 µM; in data set [1] (setting [7]), 20 µM. Further, the “P(m/b) membrane/buffer partition coefficient” value in data set [2] is 3810.

On to `CC(O)C1CC1` (stereo not shown) [cyclopropylethanol], for which the “agonist or antagonist activity (in words)” value in data set [1] is “neither agonists nor antagonists”. In data set [2], the “P(m/b) membrane/buffer partition coefficient” value is 0.83.

As to `CCCCCCCCCCCCCCO` [1-tetradecanol], in data set [1], the “antagonist effect at higher concentrations (in words)” value is “inactive” and the “agonist or antagonist activity (in words)” value is listed as “neither agonists nor antagonists”. For the same compound, in data set [1] (against 100 mM ethanol), the “antagonist activity against ethanol (in words)” value is listed as “only minimal antagonist activity”. In addition, in data set [2], the “P(m/b) membrane/buffer partition coefficient” value is listed as 112468.

In the case of `OC1CCCC1` [cyclopentanol], the “effect of increasing concentrations … (in words)” value in data set [1] is recorded as “eliminated the antagonist activity”. Besides, in data set [2], the “P(m/b) membrane/buffer partition coefficient” value is recorded as 2.24.

For the compound `OCc1ccccc1` [benzyl alcohol], the “effect of increasing concentrations … (in words)” value in data set [1] was “eliminated the antagonist activity”. The “P(m/b) membrane/buffer partition coefficient” value in data set [2] is 2.52.

In the case of `CC(C)CCCO` [4-methyl-1-pentanol], the “mean±S.E.M. percent cell adhesion” value in data set [3] came to 15±3%. Further, the “effect of increasing concentrations … (in words)” value in data set [1] is recorded as “did not eliminate the antagonist activity”. Besides, the EC50 in data set [1] (setting [6]) came out at 32 µM. Also, in data set [1] (setting [9]), the “ratio of half-maximal aqueous concentrations versus 1-hexanol” value is recorded as “approximately 2.5 times” and the “ratio of half-maximal aqueous concentrations versus 1-pentanol” value is reported as “approximately 7 fold”. In addition, the EC50 in data set [1] (setting [8]) is ~40 µM. For the same compound, the “P(m/b) membrane/buffer partition coefficient” value in data set [2] was 9.36.

Source of the values: patent US6977272B2, “Method for antagonizing inhibition effects of alcohol on cell adhesion” (President and Fellows of Harvard College, priority 2002, dated 2005).
